For one test, the target named is T1, mGluR5 receptor (pig) (Sus scrofa, UniProt I3LUI7).
T1 construct: 450 μg of protein from brain homogenate is incubated; from tissue; host or cells: pig brain hemispheres without medulla, cerebellum and pons
The test can be described thus: [3H]-MPEP binding in the mGluR5 receptor binding assay (pig brain homogenate). The settings on record: 5 nM [3H]-MPEP; for IC50: pig brain homogenate. As for the experimental part:
I. Method for Determining the Inhibition of [^3H]-MPEP Binding in the mGluR5 Receptor Binding Assay
Pig brain homogenate is produced by homogenisation (Polytron Pt 3000, Kinematica AG, 10,000 revolutions per minute for 90 seconds) of pig brain hemispheres without medulla, cerebellum and pons in a buffer of pH 8.0 (30 mM Hepes, Sigma, order number H3375+1 tablet Complete Roche Diagnostics, order number 1836145 made up to 100 ml) in a ratio of 1:20 (brain weight/volume) and differential centrifugation at 900×g and 40,000×g. 450 μg of protein from brain homogenate is incubated in each case in 250 μl incubation batches in 96-well microtitre plates with 5 nM ^3[H]-MPEP (Tocris, order number R1212) (MPEP=[…]) and the compounds to be investigated ([…]) in the buffer (as above) at room temperature for 60 min.
The batches are then filtered with the assistance of a Brandel Cell Harvester (Brandel, Robotic 9600 model) on Unifilter plates with glass filter mats (Perkin Elmer, order number 6005177) and then washed 3 times with buffer (as above) using 250 μl per sample. The filter plates are then dried for 60 min at 55° C. Then 30 μl of Ultima Gold™ scintillating material (Packard BioScience, order number 6013159) is added per well and after 3 hours the samples are measured using the β counter (Microbeta, Perkin Elmer). Nonspecific binding is determined by the addition of 10 μM MPEP (Tocris, order number 1212).

The next test deals with T2, mGluR5 receptor (human) (Homo sapiens, UniProt P41594).
T2 construct: host or cells: CHO cells (CHO-hmGluR5), expression induced with doxycycline
The test can be described thus: Functional Ca2+ influx assay in the mGluR5 receptor assay (CHO-hmGluR5 cells, DHPG). Format: cell-based. To be noted: 10 μM DHPG, Ki=IC50/(1+(AGconc/EC50)). From the text: II. Method for Determining Ca^2+ Influx in the mGluR5 Receptor Assay
An agonistic and/or antagonistic substance action on the mGluR5 receptor of the rat species may be determined with the following assay. According to this assay, intracellular Ca^2+ release is quantified after activation of the mGluR5 receptor with the assistance of a Ca^2+-sensitive dye (type Fluo-4, Molecular Probes Europe BV, Leiden, Netherlands) in a FlexStation (Molecular Devices, Sunnyvale, USA).
Description of the Functional Ca^2+ Influx Assay
20,000 CHO-hmGluR5 cells/well (Euroscreen, Gosselies, Belgium) are pipetted out into 96 well plates (BD Biosciences, Heidelberg, Germany, Ref. 356640, clear bottom, 96 well, poly-D-lysine) and incubated overnight in HBSS buffer (Gibco No. 14025-050) with the following additives: 10% FCS (GIBCO, 10270-106) and doxycycline (BD Biosciences Clontech 631311 600 ng/ml).
For the purpose of functional investigation, the cells were loaded with 2 μM Fluo-4 and 0.01 vol. % Pluronic F127 (Molecular Probes Europe BV, Leiden, Netherlands) in HBSS buffer (Hank's buffered saline solution, Gibco Invitrogen GmbH, Karlsruhe, Germany) with Probenicid (Sigma P8761, 0.69 mg/ml) for 30 min at 37° C.
The cells are then washed 3 times with washing buffer (HBSS buffer, Gibco No. 14025-050, with Probenicid (Sigma P8761, 0.69 [mg]/ml) and then resuspended with the same buffer to make up to 100 μl. After 15 min the plates are transferred for determination of Ca^2+ measurements in the presence of DHPG ((S)-3,5-dihydroxyphenylglycine, Tocris Biotrend Chemikalien GmbH, Cologne, Germany, final DHPG concentration: 10 μM) and in the presence or absence of test substances into a FLuorometric Imaging Plate Reader (FLIPR, Molecular Devices, Sunnyvale, Calif.).
Ca^2+-dependent fluorescence is measured before and after addition of test substances. Quantification proceeds by measuring the highest fluorescence intensity over time.
After recording a fluorescence baseline for 10 s, 50 μl of test substance solution (various test substance concentrations in HBSS buffer with 1% DMSO and 0.02% Tween 20, Sigma) are added and the fluorescence signal is measured for 6 min. Then, 50 μl of DHPG solution ((S)-3,5-dihydroxyphenylglycine, Tocris Biotrend Chemikalien GmbH, Cologne, Germany, final DHPG concentration: 10 μM) are added and Ca^2+ influx is simultaneously measured for 60 s. The final DMSO concentration amounts to 0.25% and the final Tween 20 content amounts to 0.005%. The data are analysed with Microsoft Excel and GraphPad Prism. The dose-response curves are calculated with non-linear regression and IC50 values are determined. Each data point is determined in triplicate and IC50 values are averaged from a minimum of 2 independent measurements.
Ki values are calculated using the following formula: Ki=IC50/(1+(AGconc/EC50)).
AGconc=10 μM; EC50 corresponds to the DHPG concentration which is necessary for the semimaximal influx of Ca^2+.

Another test deals with pain response in rats. As to the kind of experiment: Formaldehyde test in rats (phase 2, chronic pain component). Format: in vivo. Here is the method: III. Formaldehyde Test in Rats:
The formaldehyde test (Dubuisson, D. and Dennis, S. G., 1977, Pain, 4, 161-174) is a model of acute and chronic pain. A biphasic nociceptive response is induced in freely mobile test animals by a single formaldehyde injection into the dorsal side of a hind paw, said response being detected by the observation of three clearly distinguishable behaviour patterns. The response is in two phases: phase 1=immediate response (duration up to 10 min; paw shaking, licking), phase 2=late response (after a resting phase; likewise paw shaking, licking; duration up to 60 min). […] In the investigations presented here, it was the chronic pain component (phase 2) which was evaluated.
Formaldehyde is administered subcutaneously in a volume of 50 μl and a concentration of 5% into the dorsal side of the right hind paw of each animal. […] The specific behavioural changes, such as raising and shaking the paw, changes in weight bearing of the animal and biting and licking responses are observed and recorded over the observation period of 21 to 27 min after the formaldehyde injection. The various behaviours are summarised as a “pain rate” (PR), which is the calculated nociceptive response averaged over 3 min sub-intervals. […]

[1] abbreviates: 10 μM test compound, 450 μg protein from pig brain homogenate, 60 min, room temperature.

Molecules are shown by their SMILES.

T1 sequence (I3LUI7 19-1212): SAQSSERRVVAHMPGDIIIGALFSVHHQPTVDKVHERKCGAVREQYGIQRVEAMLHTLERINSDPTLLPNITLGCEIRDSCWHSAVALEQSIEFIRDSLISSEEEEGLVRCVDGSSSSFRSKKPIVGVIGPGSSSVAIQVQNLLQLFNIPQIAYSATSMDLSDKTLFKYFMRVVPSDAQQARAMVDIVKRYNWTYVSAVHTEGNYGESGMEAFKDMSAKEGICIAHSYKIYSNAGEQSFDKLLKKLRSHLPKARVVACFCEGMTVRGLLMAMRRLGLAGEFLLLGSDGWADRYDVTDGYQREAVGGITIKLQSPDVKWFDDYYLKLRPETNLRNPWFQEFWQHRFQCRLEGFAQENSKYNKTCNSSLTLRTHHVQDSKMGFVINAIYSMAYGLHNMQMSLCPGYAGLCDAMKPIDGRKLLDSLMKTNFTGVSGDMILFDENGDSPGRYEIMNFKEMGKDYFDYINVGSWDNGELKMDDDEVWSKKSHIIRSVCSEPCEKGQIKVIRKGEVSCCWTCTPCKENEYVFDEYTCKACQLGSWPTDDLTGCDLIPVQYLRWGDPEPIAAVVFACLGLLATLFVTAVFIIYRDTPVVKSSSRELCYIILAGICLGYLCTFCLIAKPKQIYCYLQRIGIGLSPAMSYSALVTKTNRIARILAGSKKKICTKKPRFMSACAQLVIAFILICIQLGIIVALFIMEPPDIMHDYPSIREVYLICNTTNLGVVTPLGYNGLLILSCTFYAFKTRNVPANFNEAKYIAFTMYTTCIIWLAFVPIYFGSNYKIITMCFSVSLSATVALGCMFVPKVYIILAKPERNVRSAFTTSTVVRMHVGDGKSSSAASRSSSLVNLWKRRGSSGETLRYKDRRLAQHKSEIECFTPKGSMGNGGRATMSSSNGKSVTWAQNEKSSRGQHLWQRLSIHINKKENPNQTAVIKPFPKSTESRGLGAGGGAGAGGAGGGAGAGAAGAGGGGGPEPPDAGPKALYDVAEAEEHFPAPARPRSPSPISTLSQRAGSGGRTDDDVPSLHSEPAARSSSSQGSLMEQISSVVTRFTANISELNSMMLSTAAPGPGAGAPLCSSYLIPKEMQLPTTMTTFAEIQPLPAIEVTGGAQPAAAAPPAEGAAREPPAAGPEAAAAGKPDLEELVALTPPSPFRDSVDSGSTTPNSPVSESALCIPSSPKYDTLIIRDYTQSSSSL
T2 sequence (P41594 21-1212): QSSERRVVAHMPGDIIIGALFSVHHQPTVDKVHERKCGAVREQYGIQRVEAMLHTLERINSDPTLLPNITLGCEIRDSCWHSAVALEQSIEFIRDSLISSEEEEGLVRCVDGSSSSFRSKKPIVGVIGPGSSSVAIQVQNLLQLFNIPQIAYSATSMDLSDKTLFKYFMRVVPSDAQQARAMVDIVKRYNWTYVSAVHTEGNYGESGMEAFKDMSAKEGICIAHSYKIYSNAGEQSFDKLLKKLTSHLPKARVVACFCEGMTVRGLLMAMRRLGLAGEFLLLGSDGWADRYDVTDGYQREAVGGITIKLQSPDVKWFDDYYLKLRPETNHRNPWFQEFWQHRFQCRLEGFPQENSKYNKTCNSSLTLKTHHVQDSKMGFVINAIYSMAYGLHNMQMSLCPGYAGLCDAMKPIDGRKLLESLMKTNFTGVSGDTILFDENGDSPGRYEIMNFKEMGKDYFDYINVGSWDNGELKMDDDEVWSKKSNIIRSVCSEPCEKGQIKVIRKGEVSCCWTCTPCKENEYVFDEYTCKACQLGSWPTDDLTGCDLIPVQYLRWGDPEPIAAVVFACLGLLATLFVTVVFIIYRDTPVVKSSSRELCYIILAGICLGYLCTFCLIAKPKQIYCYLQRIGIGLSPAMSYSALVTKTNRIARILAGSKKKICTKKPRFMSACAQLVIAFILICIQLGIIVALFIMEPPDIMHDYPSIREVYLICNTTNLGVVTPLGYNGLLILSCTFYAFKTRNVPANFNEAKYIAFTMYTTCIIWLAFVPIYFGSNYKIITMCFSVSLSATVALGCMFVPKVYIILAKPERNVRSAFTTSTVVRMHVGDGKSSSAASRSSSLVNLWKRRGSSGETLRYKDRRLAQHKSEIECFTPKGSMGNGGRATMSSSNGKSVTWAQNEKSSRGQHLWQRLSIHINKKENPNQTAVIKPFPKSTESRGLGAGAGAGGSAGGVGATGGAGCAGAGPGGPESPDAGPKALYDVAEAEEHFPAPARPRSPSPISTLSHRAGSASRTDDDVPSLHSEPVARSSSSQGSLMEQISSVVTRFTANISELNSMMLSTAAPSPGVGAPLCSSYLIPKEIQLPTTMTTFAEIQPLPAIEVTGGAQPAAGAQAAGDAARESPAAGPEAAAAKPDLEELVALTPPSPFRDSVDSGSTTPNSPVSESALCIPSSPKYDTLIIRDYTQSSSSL

As for `CC1Cc2ccccc2CN1C(=O)C#Cc1cccc(Cl)c1` (stereo not drawn) [Example 19, 2-(3-(3-chlorophenyl)-propiolyl)-3-methyl-1,2,3,4-tetrahydro-isoquinoline], at mGluR5 receptor (pig), the IC50 (as a rule, the concentration that inhibits the measured activity by half) was 0.053 µM. Further, at mGluR5 receptor (human), the inhibition constant Ki – broadly, a dissociation constant, usually derived from enzyme kinetics or from competition with a known ligand – stood at 0.0049 µM. With `COc1ccc(C#CC(=O)N2CCc3ccccc3C2)cc1` [Example 53, 2-(3-(4-methoxyphenyl)-propiolyl)-1,2,3,4-tetrahydro-isoquinoline], at mGluR5 receptor (pig) (setting [1]), the “mGluR5 receptor (pig) (10 μM) Inhibition (%)” value is recorded as 24%.

For the molecule `Cc1ccccc1C#CC(=O)N1c2ccccc2CC1C` (stereo not drawn) [Example 74, 1-(3-(2-tolyl)-propiolyl)-2-methyl-indoline], at mGluR5 receptor (pig) (setting [1]), the “mGluR5 receptor (pig) (10 μM) Inhibition (%)” value was found to be 12%.

`Cc1ccc(C#CC(=O)N2c3ccccc3CC2C)cc1F` (stereo not drawn) [Example 68, 1-(3-(3-fluoro-4-methylphenyl)-propiolyl)-2-methyl-indoline]: the “mGluR5 receptor (pig) (10 μM) Inhibition (%)” value at mGluR5 receptor (pig) (setting [1]) is recorded as 11%. Take `O=C(C#Cc1cccc(Cl)c1)N1CCc2cc(O)c(O)cc2C1` [Example 13, 2-(3-(3-chlorophenyl)-propiolyl)-7,6-dihydroxy-1,2,3,4-tetrahydro-isoquinoline]: the IC50 at mGluR5 receptor (pig) was 2.54 µM. Regarding `O=C(C#Cc1ccccc1F)N1CCc2ccccc2C1` [Example 37, 2-(3-(2-fluorophenyl)-propiolyl)-1,2,3,4-tetrahydro-isoquinoline], at mGluR5 receptor (pig) (setting [1]), the “mGluR5 receptor (pig) (10 μM) Inhibition (%)” value came out at 83%.

`O=C(C#Cc1cccc(Cl)c1)N1CCn2cccc2C1` [Example 27, 2-(3-(3-chlorophenyl)-propiolyl)-1,2,3,4-tetrahydropyrrolo[1,2-a]pyrazine] had an IC50 on mGluR5 receptor (pig) of 0.026 µM. Take `O=C(C#Cc1cccc(Cl)c1)N1CCc2ccccc2C1` [Example 5, 2-(3-(3-chlorophenyl)-propiolyl)-1,2,3,4-tetrahydro-isoquinoline]: the 50% inhibitory concentration (IC50) on mGluR5 receptor (pig) turned out to be 0.023 µM. Also, at mGluR5 receptor (human), the affinity, expressed as Ki, was 0.001 µM. Take `O=C(C#Cc1ccccc1)N1CCn2cnnc2C1` [Example 10, 7-(3-phenyl-propiolyl)-5,6,7,8-tetrahydro-[1,2,4]triazolo[4,3-a]pyrazine]: the inhibition (usually the change of the read-out against control, counted positive when it falls) at 10 µM on mGluR5 receptor (pig) (setting [1]) stood at 16%.

As for `Cc1cc(C#CC(=O)N2c3ccccc3CC2C)ccc1F` (stereo not drawn) [Example 36, 1-(3-(4-fluoro-3-methylphenyl)-propiolyl)-2-methyl-indoline], the “mGluR5 receptor (pig) (10 μM) Inhibition (%)” value on mGluR5 receptor (pig) (setting [1]) is 27%. On the same count and under the same terms, next, `COc1ccc(Br)c(C#CC(=O)N2c3ccccc3CC2C)c1` (stereo not drawn) [Example 73, 1-(3-(2-bromo-5-methoxyphenyl)-propiolyl)-2-methyl-indoline]: 45%. `COc1ccc2c(c1)CCN(C(=O)C#Cc1cccc(Cl)c1)C2` [Example 17, 2-(3-(3-chlorophenyl)-propiolyl)-6-methoxy-1,2,3,4-tetrahydro-isoquinoline] returned an IC50 on mGluR5 receptor (pig) of 0.24 µM. In turn, `COc1ccc2c(c1)CN(C(=O)C#Cc1cccc(Cl)c1)CC2` [Example 22, 2-(3-(3-chlorophenyl)-propiolyl)-7-methoxy-1,2,3,4-tetrahydro-isoquinoline] displayed an IC50 on mGluR5 receptor (pig) of 0.076 µM. Take `Cc1ccc(C#CC(=O)N2CCc3ccccc3C2)cc1C` [Example 71, 2-(3-(3,4-dimethylphenyl)-propiolyl)-1,2,3,4-tetrahydro-isoquinoline]: the “mGluR5 receptor (pig) (10 μM) Inhibition (%)” value at mGluR5 receptor (pig) (setting [1]) was found to be 43%. In turn, `COc1cccc2c1CCN(C(=O)C#Cc1cccc(Cl)c1)C2` [Example 30, 2-(3-(3-chlorophenyl)-propiolyl)-5-methoxy-1,2,3,4-tetrahydro-isoquinoline] returned an IC50 at mGluR5 receptor (pig) of 0.0015 µM. This molecule returned a Ki at mGluR5 receptor (human) of 0.0009 µM. On the same counts, the results for `O=C(C#Cc1ccccc1)N1CCc2ccccc2C1` [Example 1, 2-(3-phenyl-propiolyl)-1,2,3,4-tetrahydro-isoquinoline] are 0.18 µM and 0.0115 µM. Consider `CC1Cc2ccccc2N1C(=O)C#Cc1ccccc1` (stereo not drawn) [Example 44, 1-(3-phenyl-propiolyl)-2-methyl-indoline], for which, at mGluR5 receptor (pig) (setting [1]), the “mGluR5 receptor (pig) (10 μM) Inhibition (%)” value was 39%. `O=C(C#Cc1cccc(Cl)c1)N1CCCc2ccccc2C1` [Example 21, 2-(3-(3-chlorophenyl)-propiolyl)-2,3,4,5-tetrahydro-1H-benzo[c]azepine] came in with an IC50 at mGluR5 receptor (pig) of 0.11 µM.

Molecule `O=C(C#Cc1cccc(Cl)c1)N1CCc2ccccc2CC1` [Example 12, 3-(3-(3-chlorophenyl)-propiolyl)-1,2,4,5-tetrahydrobenzo[d]azepine] yielded an IC50 on mGluR5 receptor (pig) of 0.023 µM. The molecule further showed a Ki at mGluR5 receptor (human) of 0.0003 µM. On mGluR5 receptor (pig), `CC1c2ccccc2CCN1C(=O)C#Cc1cccc(Cl)c1` (stereo not drawn) [Example 18, 2-(3-(3-chlorophenyl)-propiolyl)-1-methyl-1,2,3,4-tetrahydro-isoquinoline] had an IC50 of 0.0054 µM. It took a dose of 1.06 mg/kg to reach the 50% effect level with pain response in rats (iv, rat, i.v., 30 min before formaldehyde) (ED50). Also, the “Formaldehyde test (rat) per os Reduction in nociceptive behaviour relative to control at 10 mg/kg [%]” value in the test on pain response in rats (per os, 10 mg/kg) was 41%. Besides, the Ki on mGluR5 receptor (human) is 0.0012 µM. Turning to `Cc1ccc2c(c1)CCN(C(=O)C#Cc1cccc(Cl)c1)C2` [Example 20, 2-(3-(3-chlorophenyl)-propiolyl)-6-methyl-1,2,3,4-tetrahydro-isoquinoline], the IC50 at mGluR5 receptor (pig) stood at 0.055 µM. Turning to `O=C(C#Cc1cccs1)N1CCc2ccccc2C1` [Example 55, 2-(3-(2-thienyl)-propiolyl)-1,2,3,4-tetrahydro-isoquinoline], on mGluR5 receptor (pig) (setting [1]), the “mGluR5 receptor (pig) (10 μM) Inhibition (%)” value is on record as 86%.

These data come from patent US20090075978A1, “SUBSTITUTED PROPIOLIC ACID AMIDES AND THEIR USE FOR PRODUCING DRUGS” (Grunenthal GmbH, priority 2005, published 2009).
